From PMC11078990, “Identification and characterization of small molecule inhibitors of the LINE-1 retrotransposon endonuclease” (Nature Communications, 2024)
Where “and” joins values, the source holds several entries; their conditions need not be identical. Equal values may be shown once. Read-outs that look alike come from different tables or passages of the source.

Tests used:
APE1 = target: T1, APE1 (Homo sapiens, UniProt P27695); assay: APE1 fluorescent oligonucleotide activity assay (abasic site substrate); type: biochemical; details: for activity at 25 µM: read-out: APE1 activity (%)
T1 construct: purchased New England Biolabs (NEB) M0282S

L1 retrotransposition = assay: HeLa dual-luciferase L1 retrotransposition assay; type: cell-based, human
[1] = target: L1 EN (LINE-1 retrotransposon endonuclease domain) (Homo sapiens, UniProt O00370, N5T); assay: Fluorescent oligonucleotide EN nicking activity assay; type: biochemical
L1 EN (LINE-1 retrotransposon endonuclease domain), sequence (O00370 1-239 N5T): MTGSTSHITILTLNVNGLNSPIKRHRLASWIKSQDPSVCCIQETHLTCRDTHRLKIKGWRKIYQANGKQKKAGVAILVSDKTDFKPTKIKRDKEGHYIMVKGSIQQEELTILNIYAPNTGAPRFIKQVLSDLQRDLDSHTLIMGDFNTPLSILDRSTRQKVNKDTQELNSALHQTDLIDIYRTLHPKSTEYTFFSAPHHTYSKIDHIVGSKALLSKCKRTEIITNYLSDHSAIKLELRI

[2] = system: substrate oligonucleotide used in the EN activity assay; type: binding; parameters: key to Binding Detected? (Y/N): Binding Detected? (Y/N); Binding Detected? (Y/N)
[3] = system: DNA fragmentation (comet tail length) in HeLa Tet-On cells expressing EN domain; assay: Neutral comet assay, EN domain-only constructs; type: cell-based, human
HeLa Tet-On cells = details: human
[4] = read-out: EN activity, percent of no inhibitor control
[5] = 250 µM, Supplementary Fig. 6b, n=3
[6] = 250 µM, Supplementary Fig. 6b, replicates 1-3
[7] = compound at 25 μM, average of 3 replicates
[8] = inhibitors at 25 μM, relative to 0 μM inhibitor control, mean ± s.d., 3 independent experiments
[9] = [Inhibitor] 5 μM, technical replicates 1-3, Fig. 2b source data, 5 µM
[10] = [Inhibitor] 25 μM, technical replicates 1-3, Fig. 2b source data, 25 µM
[11] = [Inhibitor] 100 μM, technical replicates 1-3, Fig. 2b source data, 100 µM
[12] = [Inhibitor] 100 μM, technical replicates 1-3, Fig. 2b source data, read-out: EN activity, percent of no inhibitor control
[13] = [Inhibitor] 250 μM, technical replicates 1-3, Fig. 2b source data, 250 µM
[14] = [Inhibitor] 500 μM, technical replicates 1-3, Fig. 2b source data, 500 µM
[15] = [Inhibitor] 500 μM, technical replicates 1-3, Fig. 2b source data, read-out: EN activity, percent of no inhibitor control
[16] = [Inhibitor] 1000 μM, technical replicates 1-3, Fig. 2b source data, 1000 µM
[17] = [Inhibitor] 1000 μM, technical replicates 1-3, Fig. 2b source data, read-out: EN activity, percent of no inhibitor control
[18] = [Inhibitor] 2500 μM, technical replicates 1-3, Fig. 2b source data, 2500 µM

C/C(=N\Nc1ccc([N+](=O)[O-])cc1[N+](=O)[O-])c1ccc(-n2nncc2C(C)(C)C)cc1 [AD7]
APE1 percent activity, Replicate 1 (APE1): 123.061% | APE1 percent activity, Replicate 2 (APE1): 113.794% | APE1 percent activity, Replicate 3 (APE1): 119.588% | APE1 percent activity, average (APE1): 118.815% | Percent APE1 activity, average (APE1): 103.1% | Percent APE1 activity, replicates (APE1): 105.066% and 99.3868% and 104.87% | activity at 25 µM (APE1): 119 ± 4.7% | Effect on L1 retrotransposition (L1 retrotransposition): some activity in the retrotransposition assay | Luciferase (retrotransposition), average (L1 retrotransposition): 2.314 | Luciferase (retrotransposition), replicates (L1 retrotransposition): 2.087 and 1.842 and 2.6465 and 2.682 | EN activity, percent of no inhibitor control ([1]; 5 µM): 101.994% and 98.1742% and 77.1828% | EN activity, percent of no inhibitor control ([1]; 25 µM): 96.2152% and 94.2464% | EN activity, percent of no inhibitor control ([1]; 50 µM): 105.792% and 87.7855% | EN activity, percent of no inhibitor control ([1]; 100 µM): 94.7448% and 86.2812% | EN activity, percent of no inhibitor control ([1]; 250 µM): 48.1744% and 80.4178% and 71.8348% | EN activity, percent of no inhibitor control ([1]; 500 µM): 47.3691% | EN activity, percent of no inhibitor control ([1]; 750 µM): 44.5063% and 42.7569% | EN activity, percent of no inhibitor control ([1]; 1000 µM): 33.3657% and 34.4723% | EN activity, percent of no inhibitor control ([1]; 1500 µM): 8.772% and 6.335% | remaining activity at 25 µM [1, 4]: 86.8% | remaining activity at 50 µM [1, 4]: 88.2% | remaining activity at 100 µM [1, 4]: 97.9% | remaining activity at 500 µM [1, 4]: 61.3% | remaining activity at 750 µM [1, 4]: 34.4% | remaining activity at 1000 µM [1, 4]: 39.3% | remaining activity at 1500 µM [1, 4]: 7.91% | Binding Detected? (Y/N) [2]: N | Nuclei comet tail length, average (WT = 1) [3]: 0.8142 | PrestoBlue (viability), average (HeLa Tet-On cells): 16.01

O=C(CCCCCCCCCCC(=O)Nc1cccc([N+](=O)[O-])c1)Nc1cccc([N+](=O)[O-])c1 [AD11]
APE1 percent activity, Replicate 1 (APE1): 77.2032% | APE1 percent activity, Replicate 2 (APE1): 89.204% | APE1 percent activity, Replicate 3 (APE1): 71.7475% | APE1 percent activity, average (APE1): 79.3849% | activity at 25 µM (APE1): 79.4 ± 8.9% | L1 retrotransposition, average (L1 retrotransposition): 2.364 and 2.4307 and 2.013 and 1.968 and 2.0024 and 1.896 and 1.695 and 1.484 | Luciferase (retrotransposition), average (L1 retrotransposition): 3.993 | Luciferase (retrotransposition), replicates (L1 retrotransposition): 4.575 and 4.225 and 3.621 and 3.549 | EN activity, percent of no inhibitor control ([1]; 0.1 µM): 84.764% and 74.2098% | EN activity, percent of no inhibitor control ([1]; 0.5 µM): 87.7394% and 79.0744% | EN activity, percent of no inhibitor control ([1]; 1 µM): 78.4622% and 83.3471% | EN activity, percent of no inhibitor control ([1]; 5 µM): 48.2874% and 49.6964% | EN activity, percent of no inhibitor control ([1]; 25 µM): 8.361% and 7.932% | EN activity, percent of no inhibitor control ([1]; 50 µM): 2.144% and 3.212% | EN activity, percent of no inhibitor control ([1]; 100 µM): 0.8407% and 0.78% and 1.633% | remaining activity at 0.1 µM [1, 4]: 87.2% | remaining activity at 0.5 µM [1, 4]: 73.3% | remaining activity at 1 µM [1, 4]: 78.1% | remaining activity at 5 µM [1, 4]: 54.9% | remaining activity at 25 µM [1, 4]: 6.58% | remaining activity at 50 µM [1, 4]: 2.44% | remaining activity at […] [1, 4]: 65.8% | Binding Detected? (Y/N) [2]: N | Nuclei comet tail length, average (WT = 1) [3]: 0.8117 | PrestoBlue (viability), average (HeLa Tet-On cells): 15.84

COc1ccc(OC)c(NS(=O)(=O)c2ccc(NS(=O)(=O)c3cccc([N+](=O)[O-])c3)cc2)c1 [AD36]
Percent APE1 activity, average (APE1; [5]): 108.9% | Percent APE1 activity, replicates (APE1; [6]): 115.202% and 104.299% and 107.269% | APE1 percent activity, Replicate 1 (APE1; compound at 25 μM, Replicate 1): 121.786% | APE1 percent activity, Replicate 2 (APE1; compound at 25 μM, Replicate 2): 104.892% | APE1 percent activity, Replicate 3 (APE1; compound at 25 μM, Replicate 3): 127.866% | APE1 percent activity, average (APE1; [7]): 118.181% | activity at 25 µM (APE1; [8]): 118 ± 11.9% | L1 retrotransposition, average (L1 retrotransposition; 0.5 μM inhibitor, average of 4 replicates, Figure 4b): 4.647 | L1 retrotransposition, average (L1 retrotransposition; 1 μM inhibitor, average of 4 replicates, Figure 4b): 4.699 | L1 retrotransposition, average (L1 retrotransposition; 5 μM inhibitor, average of 4 replicates, Figure 4b): 4.066 | L1 retrotransposition, average (L1 retrotransposition; 10 μM inhibitor, average of 4 replicates, Figure 4b): 4.169 | L1 retrotransposition, average (L1 retrotransposition; 25 μM inhibitor, average of 4 replicates, Figure 4b): 2.81 | L1 retrotransposition, average (L1 retrotransposition; 50 μM inhibitor, average of 4 replicates, Figure 4b): 1.253 | Luciferase (retrotransposition), average (L1 retrotransposition; Figure 4a Graph 4, 25μM, 0μM average 3.426): 1.266 | Luciferase (retrotransposition), replicates (L1 retrotransposition; Figure 4a Graph 4, 25μM, Replicates 1-4, 0μM average 3.426): 1.765 and 0.7621 and 1.278 and 1.259 | Effect on L1 retrotransposition (L1 retrotransposition; HeLa cells): some activity in the retrotransposition assay | EN activity, percent of no inhibitor control [1, 9]: 91.0252% and 84.1869% | remaining activity at 5 µM ([1]; [Inhibitor] 5 μM, technical replicates 1-3, Fig. 2b source data, read-out: EN activity, percent of no inhibitor control): 89.6% | EN activity, percent of no inhibitor control [1, 10]: 101.21% and 100.403% | remaining activity at 25 µM ([1]; [Inhibitor] 25 μM, technical replicates 1-3, Fig. 2b source data, read-out: EN activity, percent of no inhibitor control): 82% | EN activity, percent of no inhibitor control [1, 11]: 79.4211% and 84.6024% | remaining activity at 100 µM [1, 12]: 96.7% | EN activity, percent of no inhibitor control [1, 13]: 66.0801% and 55.4717% | remaining activity at 250 µM ([1]; [Inhibitor] 250 μM, technical replicates 1-3, Fig. 2b source data, read-out: EN activity, percent of no inhibitor control): 47.9% | EN activity, percent of no inhibitor control [1, 14]: 50.9528% and 49.6683% | remaining activity at 500 µM [1, 15]: 60.1% | EN activity, percent of no inhibitor control ([1]; [Inhibitor] 750 μM, technical replicates 1-3, Fig. 2b source data, 750 µM): 44.0742% and 35.8636% | remaining activity at 750 µM ([1]; [Inhibitor] 750 μM, technical replicates 1-3, Fig. 2b source data, read-out: EN activity, percent of no inhibitor control): 31.6% | EN activity, percent of no inhibitor control [1, 16]: 29.1344% and 22.6241% | remaining activity at 1000 µM [1, 17]: 19.6% | EN activity, percent of no inhibitor control ([1]; [Inhibitor] 1750 μM, technical replicates 1-3, Fig. 2b source data, 1750 µM): 17.5242% and 11.215% and 25.1816% | EN activity, percent of no inhibitor control [1, 18]: 18.2597% and 42.0507% and 24.6475% | Binding Detected? (Y/N) [2]: N | PrestoBlue (viability), average (HeLa Tet-On cells; 48 h, 25 μM): 15.2

O=C(Cn1nc(-c2ccc(Br)cc2)ccc1=O)NC[C@H]1CC[C@H](C(=O)O)CC1 [AD43]
Percent APE1 activity, average (APE1; [5]): 116.3% | Percent APE1 activity, replicates (APE1; [6]): 119.605% and 105.469% and 123.903% | APE1 percent activity, Replicate 1 (APE1; compound at 25 μM, Replicate 1): 116.306% | APE1 percent activity, Replicate 2 (APE1; compound at 25 μM, Replicate 2): 108.363% | APE1 percent activity, Replicate 3 (APE1; compound at 25 μM, Replicate 3): 123.152% | APE1 percent activity, average (APE1; [7]): 115.94% | activity at 25 µM (APE1; [8]): 116 ± 7.4% | Luciferase (retrotransposition), average (L1 retrotransposition; Figure 4a Graph 5, 50μM, 0μM average 4.537): 2.141 | Luciferase (retrotransposition), replicates (L1 retrotransposition; Figure 4a Graph 5, 50μM, Replicates 1-4, 0μM average 4.537): 2.066 and 2.337 and 2.1059 and 2.055 | Effect on L1 retrotransposition (L1 retrotransposition; HeLa cells): some activity in the retrotransposition assay | EN activity, percent of no inhibitor control [1, 9]: 82.7533% and 93.1928% and 121.814% | EN activity, percent of no inhibitor control [1, 10]: 125.36% and 146.969% and 130.066% | EN activity, percent of no inhibitor control ([1]; [Inhibitor] 50 μM, technical replicates 1-3, Fig. 2b source data, 50 µM): 105.857% and 111.128% | remaining activity at 50 µM ([1]; [Inhibitor] 50 μM, technical replicates 1-3, Fig. 2b source data, read-out: EN activity, percent of no inhibitor control): 117% | EN activity, percent of no inhibitor control [1, 11]: 119.496% and 103.054% | remaining activity at 100 µM [1, 12]: 106% | EN activity, percent of no inhibitor control [1, 13]: 70.4269% and 99.2352% and 82.7621% | EN activity, percent of no inhibitor control [1, 14]: 75.3754% and 92.6354% | remaining activity at 500 µM [1, 15]: 82.7% | EN activity, percent of no inhibitor control [1, 16]: 36.4624% and 21.4688% | remaining activity at 1000 µM [1, 17]: 31.2% | EN activity, percent of no inhibitor control [1, 18]: -1.238% and -2.463% and -2.08% | Binding Detected? (Y/N) [2]: N | PrestoBlue (viability), average (HeLa Tet-On cells; 48 h, 50 μM): 6.621
